Values after ≈ are worked out from the molar mass of the structure shown. Where two headings read alike, the source gives them in different places. Starred links: 1 amine or outer side, 2 acyl side, 3 side chain; linkers in the order of their positions; H or OH if unused. Non-standard residues stand in square brackets, D forms with d. Residues, ends and D or L forms follow the SMILES beside them. Groups on a side chain read outwards from the residue. *: point of attachment. C18 diacid = O=C(O)CCCCCCCCCCCCCCCCC(=O)*; γGlu = O=C(O)[C@H](CCC(=O)[*:2])N[*:1]; AEEA = NCCOCCOCC(=O)O; Aib = CC(C)(N)C(=O)O
Legend:
human CRF2α receptor = molecular target: T1, human CRF2α receptor (Homo sapiens, UniProt Q13324); assay: cAMP agonism at human CRF2 α receptor in TeloHEAC cells (Example 7); format: cell-based; conditions: cAMP HTRF, TeloHEAC cells stably expressing human CRF2 α
T1 construct: expressed in transfected cells; host or cells: TeloHEAC
T1 sequence (Q13324 1-411): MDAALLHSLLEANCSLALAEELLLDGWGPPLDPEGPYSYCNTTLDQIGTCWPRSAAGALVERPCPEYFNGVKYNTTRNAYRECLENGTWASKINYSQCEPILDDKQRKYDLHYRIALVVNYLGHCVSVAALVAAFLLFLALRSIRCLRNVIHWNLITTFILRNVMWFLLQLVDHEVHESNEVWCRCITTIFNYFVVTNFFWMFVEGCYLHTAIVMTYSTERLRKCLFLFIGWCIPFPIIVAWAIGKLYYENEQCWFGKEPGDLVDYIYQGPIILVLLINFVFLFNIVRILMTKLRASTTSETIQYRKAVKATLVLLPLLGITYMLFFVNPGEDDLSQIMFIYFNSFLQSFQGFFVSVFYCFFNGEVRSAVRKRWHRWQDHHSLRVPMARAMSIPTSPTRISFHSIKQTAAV
Outline: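 Percent activation was referenced to 1000 nM UCN2 (100%), and EC50 values taken as concentrations giving half of maximal response. The read-out was a homogeneous time-resolved fluorescence cAMP kit, fluorescence ratio 665/620 nm. Thawed cells (2000/well) saw compound for 30 min at RT in buffer with 2 mM IBMX and 0%/0.1% HSA.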

rat CRF2R α receptor = assay: cAMP agonism at rat CRF2R α receptor in A7R5 rat aortic smooth muscle cells (Example 8); format: cell-based; conditions: cAMP HTRF, A7R5 rat aortic smooth muscle cell line, 0% HSA
Outline: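 Thawed cryopreserved A7R5 cells in HBSS/20 mM HEPES (0 or 0.1% HSA) with 2 mM IBMX, 2000 cells/well, were exposed to compound for 30 min at room temperature. cAMP was read by HTRF (665/620 nm ratio) after 1 h with lysis reagents. Activity was normalised to 1000 nM urocortin 2 as 100%, and EC50 was taken as the concentration giving 50% of maximal activation.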

CRF1R receptor = molecular target: T2, CRF1R receptor (Homo sapiens, UniProt P34998); assay: cAMP activity at anti-target CRF1R, CRF1R-overexpression CHO cell line (Example 9); format: cell-based; conditions: CRF1R-overexpression CHO cell line; for EC50: 0% HSA; for Emax: read-out: Emax (%)
T2 construct: host or cells: CHO-K1 clone 2
T2 sequence (P34998 24-415): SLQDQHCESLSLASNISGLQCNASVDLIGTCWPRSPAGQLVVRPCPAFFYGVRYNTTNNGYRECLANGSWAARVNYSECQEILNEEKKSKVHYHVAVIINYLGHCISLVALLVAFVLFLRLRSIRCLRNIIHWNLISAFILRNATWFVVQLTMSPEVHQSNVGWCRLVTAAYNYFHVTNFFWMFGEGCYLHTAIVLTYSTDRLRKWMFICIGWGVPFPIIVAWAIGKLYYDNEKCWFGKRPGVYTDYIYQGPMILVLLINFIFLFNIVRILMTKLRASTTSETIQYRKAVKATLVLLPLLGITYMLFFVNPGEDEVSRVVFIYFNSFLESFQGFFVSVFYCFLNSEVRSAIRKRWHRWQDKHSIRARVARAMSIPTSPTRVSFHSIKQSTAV
Outline: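 cAMP accumulation was read by HTRF after 30 min at room temperature of compound treatment. Cells were cryopreserved CHO cells overexpressing CRF1R, plated at 2000/well in IBMX (2 mM)-containing HBSS/HEPES buffer with 0 or 0.1% HSA. Activity was normalized to 1000 nM UCN2 as 100%.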

[1] = Solubility in buffer systems by UPLC-UV (Example 13); format: physicochemical
Outline: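 The supernatant was diluted 1:10 and quantified by UPLC-UV peak area against a reference standard curve, correcting for sequence-based extinction coefficients.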

[2] = Physical stability, Thioflavin T fibrillation assay (Example 14); format: physicochemical; conditions: Buffer B: 100 mM acetate buffer, pH 4.5, 2.7 mg/ml m-cresol; 3 mg/ml; 37° C. shaking
Protocol: The physical stability of the compounds was assessed using a Thioflavin T (ThT) assay.
The time course for fibril formation often follows the characteristic shape of a sigmoidal curve and can be separated into three regions: a lag phase, a fast growth phase, and a plateau phase. The typical fibril formation process starts with the lag phase in which the amount of partially folded peptide turned into fibrils is not significant enough to be detected. The lag-time corresponds to the time the critical mass of the nucleus is built. Afterwards, a drastic elongation phase follows and fibril concentration increases rapidly. Therefore, by measuring the increase in fluorescence intensity attributable to ThT as well as the lag time of the increase, the fibrillation tendency of a peptide can be determined, thereby providing a measure of the physical stability of the peptide.
In the present study, test compounds were diluted in buffer to a final concentration of 3 mg/ml.
The fibrillation tendencies of the peptides were determined under stress using a Fluoroskan Ascent FL or Fluoroskan Ascent fluorometer. […] Plates were sealed with Scotch Tape (Quiagen). Samples were stressed by continuous cycles of 10 s shaking at 960 rpm and 50 s rest period at 37° C. Fibril development was monitored by measuring fluorescence intensity every 20 minutes. For each sample, eight replicates were tested.

[3] = 0% HSA, read-out: EC50 [nM], 0% HSA
[4] = pH 4.5, Solubility in Buffer B [mg/ml]
[5] = pH 7.4, Solubility in Buffer C [mg/ml]
[6] = 0.1% HSA, read-out: EC50 [nM], 0.1% HSA

| SMILES | EC50 (human CRF2α receptor; [3]) | EC50 (rat CRF2R α receptor) | EC50 (CRF1R receptor) | Emax (CRF1R receptor) | solubility at 1 h [1, 4] | solubility at 1 h [1, 5] | EC50 (human CRF2α receptor; [6]) | Increase in FI (fluorescence intensity) [2] | Lag time [2] |
| --- | --- | --- | --- | --- | --- | --- | --- | --- | --- |
| CC[C@H](C)[C@H](N)C(=O)N[C@H](C(=O)N[C@@H](CC(C)C)C(=O)N[C@@H](CO)C(=O)N[C@@H](CC(C)C)C(=O)N[C@@H](CC(=O)O)C(=O)N[C@H](C(=O)N1CCC[C@H]1C(=O)N[C@H](C(=O)N[C@@H](CCCCN)C(=O)N[C@@H](CC(C)C)C(=O)N[C@@H](CCCCNC(=O)COCCOCCNC(=O)COCCOCCNC(=O)CC[C@H](NC(=O)CCCCCCCCCCCCCCCCC(=O)O)C(=O)O)C(=O)N[C@@H](CCC(N)=O)C(=O)N[C@H](C(=O)N[C@@H](CC(C)C)C(=O)N[C@@H](CC(C)C)C(=O)N[C@@H](CCC(=O)O)C(=O)N[C@@H](CCC(N)=O)C(=O)N[C@@H](CCC(=O)O)C(=O)N[C@@H](CCCCN)C(=O)N[C@@H](CCC(N)=O)C(=O)N[C@@H](CCCCN)C(=O)N[C@@H](CCCCN)C(=O)N[C@@H](CCC(N)=O)C(=O)N[C@@H](CCCNC(=N)N)C(=O)N[C@@H](CCC(=O)O)C(=O)N[C@@H](CCC(N)=O)C(=O)N[C@@H](C)C(=O)N[C@@H](CCC(=O)O)C(=O)N[C@H](C(=O)N[C@@H](CC(N)=O)C(=O)N[C@@H](CCCCN)C(=O)N[C@@H](CCC(N)=O)C(=O)N[C@H](C(=O)N[C@@H](CC(C)C)C(=O)N[C@@H](C)C(=O)N[C@@H](CCC(N)=O)C(=O)N[C@H](C(N)=O)C(C)C)[C@@H](C)CC)[C@@H](C)O)[C@@H](C)CC)[C@@H](C)CC)C(C)C)C(C)C [compound 67] (H-IVLSLDVPIKLK([AEEA-AEEA-γGlu-C18 diacid])QILLEQEKQKKQREQAETNKQILAQV-NH2; N-terminus assumed) | 0.57 nM | 0.66 nM | > 1000 nM | 9.18% | 6800 µg/mL (≈ 1320 µM) | 7500 µg/mL (≈ 1450 µM) | – | – | – |
| CC[C@H](C)[C@H](N)C(=O)N[C@H](C(=O)N[C@@H](CC(C)C)C(=O)N[C@@H](CO)C(=O)N[C@@H](CC(C)C)C(=O)N[C@@H](CC(=O)O)C(=O)N[C@H](C(=O)N1CCC[C@H]1C(=O)N[C@H](C(=O)N[C@@H](CCCCN)C(=O)N[C@@H](CC(C)C)C(=O)N[C@@H](CCCCNC(=O)COCCOCCNC(=O)COCCOCCNC(=O)CC[C@H](NC(=O)CCCCCCCCCCCCCCCCC(=O)O)C(=O)O)C(=O)N[C@@H](CCC(N)=O)C(=O)N[C@H](C(=O)N[C@@H](CC(C)C)C(=O)N[C@@H](CC(C)C)C(=O)N[C@@H](CCC(=O)O)C(=O)N[C@@H](CCC(N)=O)C(=O)N[C@@H](CCC(=O)O)C(=O)N[C@@H](CCCCN)C(=O)N[C@@H](CCC(N)=O)C(=O)N[C@@H](CCCCN)C(=O)NC(C)(C)C(=O)N[C@@H](CCC(N)=O)C(=O)N[C@@H](CCCNC(=N)N)C(=O)N[C@@H](CCC(=O)O)C(=O)N[C@@H](CCC(N)=O)C(=O)N[C@@H](C)C(=O)N[C@@H](CCC(=O)O)C(=O)N[C@H](C(=O)N[C@@H](CC(N)=O)C(=O)N[C@@H](CCCCN)C(=O)N[C@@H](CCC(N)=O)C(=O)N[C@H](C(=O)N[C@@H](CC(C)C)C(=O)N[C@@H](C)C(=O)N[C@@H](CCC(N)=O)C(=O)N[C@H](C(N)=O)C(C)C)[C@@H](C)CC)[C@@H](C)O)[C@@H](C)CC)[C@@H](C)CC)C(C)C)C(C)C [compound 79] (H-IVLSLDVPIKLK([AEEA-AEEA-γGlu-C18 diacid])QILLEQEKQK[Aib]QREQAETNKQILAQV-NH2; N-terminus assumed) | 0.46 nM | 3.99 nM | > 1000 nM | 8.74% | 18900 µg/mL (≈ 3700 µM) | > 8800 µg/mL | – | – | – |
| CC[C@H](C)[C@H](N)C(=O)N[C@H](C(=O)N[C@@H](CC(C)C)C(=O)N[C@@H](CO)C(=O)N[C@@H](CC(C)C)C(=O)N[C@@H](CC(=O)O)C(=O)N[C@@H](C(=O)N1CCC[C@H]1C(=O)N[C@H](C(=O)NCC(=O)N[C@@H](CC(C)C)C(=O)N[C@@H](CCCCNC(=O)COCCOCCNC(=O)COCCOCCNC(=O)CC[C@H](NC(=O)CCCCCCCCCCCCCCCCC(=O)O)C(=O)O)C(=O)N[C@@H](CCC(N)=O)C(=O)N[C@H](C(=O)N[C@@H](CC(C)C)C(=O)N[C@@H](CC(C)C)C(=O)N[C@@H](CCCCN)C(=O)N[C@@H](CCC(N)=O)C(=O)N[C@@H](CCC(=O)O)C(=O)N[C@@H](CCCNC(=N)N)C(=O)N[C@@H](CCC(N)=O)C(=O)N[C@@H](CCCCN)C(=O)N[C@@H](CCCCN)C(=O)NC(C)(C)C(=O)N[C@@H](CCCNC(=N)N)C(=O)N[C@@H](CCC(=O)O)C(=O)N[C@@H](CCC(N)=O)C(=O)N[C@@H](C)C(=O)N[C@@H](CCC(=O)O)C(=O)N[C@H](C(=O)N[C@@H](CC(N)=O)C(=O)N[C@@H](CCCCN)C(=O)N[C@@H](CCCNC(=N)N)C(=O)N[C@H](C(=O)N[C@@H](CC(C)C)C(=O)N[C@@H](CCC(=O)O)C(=O)N[C@@H](CCCNC(=N)N)C(=O)N[C@H](C(N)=O)C(C)C)[C@@H](C)CC)[C@@H](C)O)[C@@H](C)CC)[C@@H](C)CC)C(C)C)C(C)C [compound 83] (H-IVLSLD[dV]PIGLK([AEEA-AEEA-γGlu-C18 diacid])QILLKQERQKK[Aib]REQAETNKRILERV-NH2; N-terminus assumed) | 0.07 nM | 1.83 nM | > 1000 nM | 7.51% | – | – | 2.99 nM | No | >45 h |
| CC[C@H](C)[C@H](N)C(=O)N[C@H](C(=O)N[C@@H](CC(C)C)C(=O)N[C@@H](CO)C(=O)N[C@@H](CC(C)C)C(=O)N[C@@H](CC(=O)O)C(=O)N[C@@H](C(=O)N1CCC[C@H]1C(=O)N[C@H](C(=O)N[C@@H](CCCCN)C(=O)N[C@@H](CC(C)C)C(=O)N[C@@H](CCCCNC(=O)COCCOCCNC(=O)COCCOCCNC(=O)CC[C@H](NC(=O)CCCCCCCCCCCCCCCCC(=O)O)C(=O)O)C(=O)N[C@@H](CCC(N)=O)C(=O)N[C@H](C(=O)N[C@@H](CC(C)C)C(=O)N[C@@H](CC(C)C)C(=O)N[C@@H](CCC(=O)O)C(=O)N[C@@H](CCC(N)=O)C(=O)N[C@@H](CCC(=O)O)C(=O)N[C@@H](CCCNC(=N)N)C(=O)N[C@@H](CCC(N)=O)C(=O)N[C@@H](CCCCN)C(=O)NC(C)(C)C(=O)N[C@@H](CCC(N)=O)C(=O)N[C@@H](CCCNC(=N)N)C(=O)N[C@@H](CCC(N)=O)C(=O)N[C@@H](CCC(N)=O)C(=O)N[C@@H](C)C(=O)N[C@@H](CCC(=O)O)C(=O)N[C@@H](CCCCN)C(=O)N[C@@H](CC(N)=O)C(=O)N[C@@H](CCCCN)C(=O)N[C@@H](CCC(N)=O)C(=O)N[C@H](C(=O)N[C@@H](CC(C)C)C(=O)N[C@@H](C)C(=O)N[C@@H](CCC(N)=O)C(=O)N[C@H](C(N)=O)C(C)C)[C@@H](C)CC)[C@@H](C)CC)[C@@H](C)CC)C(C)C)C(C)C [compound 131] (H-IVLSLD[dV]PIKLK([AEEA-AEEA-γGlu-C18 diacid])QILLEQERQK[Aib]QRQQAEKNKQILAQV-NH2) | 0.11 nM | 0.39 nM | – | – | – | – | 2.44 nM | No | >45 h |

From US12679878B2, “CRF2 receptor agonists and their use in therapy” (SANOFI, priority 2020, dated 2026)
